Counter-ions that a name gives are not always drawn.
Columns and labels:
[1] = system: COL1A1; experiment: In vitro efficacy in semi-activated LX2 cells, qPCR: COL1A1; assay type: cell-based; details: Homo sapiens, LX-2, 50 µM, 48 hours, Q-PCR, read-out: COL1A1 mRNA inhibition rate
[2] = system: collagen III; experiment: Semi-activated LX2 cells, Western blot: collagen III protein; assay type: cell-based; details: 50-400 μM, 48 hours, FIG. 1, vs 50 μM aspartic acid
Protocol: 4. Western blotting to detect protein expression level
4.1 Extraction of total cell protein: The cells were taken out, the original culture medium was discarded, 1 to 2 mL of 1×PBS was added, washing was performed twice, digestion was performed with trypsin, the supernatant was discarded, the cells at the bottom of the tube were gently moved by flicking, and then 1 mL of PBS was added again to wash the cells twice; after being centrifuged at 1200 rpm for 5 minutes, the supernatant was completely discarded, the cells at the bottom of the tube was mixed well by flicking. Depending on the amount of cells, 50 to 100 μL of protein lysis buffer containing protease inhibitor and phosphatase inhibitor was added, the cells were mixed thoroughly by pipetting, placed on ice and lysed for 30 minutes, then centrifuged at 12,000 rcf for 15 minutes at 4° C., and the supernatant was pipetted and transferred into a new EP tube to obtain the total cell protein, which could be directly used for subsequent determination of protein concentration or stored at −80° C.
4.2 Determination of protein concentration by BCA method: BCA reagent solution A and solution B were mixed well at a ratio of 50:1 to prepare a working solution; 5 μL of the sample to be tested was taken, added into 95 μL of deionized water, mixed, and diluted 20 times, and 20 μL of the diluted sample to be tested was taken and added to a 96-well plate; after 200 μL of the working solution was added, the 96-well plate was placed in a 37° C. incubator and incubated for 30 min, and then tested on the machine.
4.3 Protein denaturation: 100 μg of each of samples was taken respectively, supplemented with protein lysis buffer to reach the volume of each sample, then added with 4× loading buffer at 1/3 of the total volume and mixed thoroughly, underwent denaturation at 99° C. for 10 min, centrifuged and stored at −80° C. […]

**Q.** COC(=O)[C@@H](N)CC(=O)O [Compound 4] was tested. Which inhibition at 50 µM [1] did it give?
**A.** Its inhibition at 50 µM is 25 to 50%.

**Q.** How did the inhibition at 50 µM [1] turn out when COC(=O)C[C@H](N)C(=O)O [Compound 6] was run?
**A.** Its inhibition at 50 µM is 25 to 50%.

**Q.** What about the “inhibitory effect on collagen III protein expression as compared to ASP” value (shortened to “inhibitory effect … compared to ASP”) [2] of the same compound?
**A.** Its value is “stronger inhibitory effects”.

**Q.** For N[C@@H](CCC(=O)O)C(=O)O [Compound 47], which inhibition at 50 µM [1] is on record?
**A.** The inhibition at 50 µM was 25 to 50%.

**Q.** And the “inhibitory effect … compared to ASP” value [2]?
**A.** Its value is “stronger inhibitory effects”.

**Q.** Which inhibition at 50 µM [1] does the source give for COC(=O)C[C@H](N)C(=O)OCOC(=O)[C@@H](N)CC(=O)OC [Compound 54, 4-dimethyl O′1,01-methylene (2S,2'S)-bis (2-aminosuccinate) hydrochloride] here?
**A.** The inhibition at 50 µM was 25 to 50%.

**Q.** And the “inhibitory effect … compared to ASP” value [2]?
**A.** The value was “stronger inhibitory effects”.
